What was measured:
Assay type in all cases: cell-based, human
NK92 cells [1] = test: IFN gamma secretion assay in NK92 cells (Example 10); details: IFNγ secretion, 1 ng/ml IL-12
Procedure: The IFNγ-secretion stimulating activity of the unconjugated IL-18 variants and corresponding IL-18 immunocytokines was evaluated on NK92 cell line. The NK cell line NK-92 derived from a patient with lymphoma (ATCC, Cat #CRL-2407) was cultured in aMEM medium supplemented with 12.5% FCS, 12.5% horse serum (HS), 50 uM B-mercaptoEthanol, and 2 ng/ml of recombinant Human Interleukin-2 (IL-2).
On the day of experiment, cells were harvested and washed with aMEM medium without IL-2 and resuspended in medium (w/o IL-2) containing 1 ng/ml of recombinant human Interleukin-12 (SinoBiologicals, Cat #CT011-H08H). After counting, cells were seeded at 100 000 cells/well in a 384 well titer plate and incubated at 37° C./5% CO2. Sixteen 4-fold serial dilutions of IL-18 analytes were prepared in aMEM medium—1 ng/ml IL-12 and were added to the NK-92 cells. […]
(§1) After 16-20 h incubation at 37° C./5% CO2, 5 μl of supernatant were carefully transferred to a 384 microwells OPTIPlate (Perkin Elmer; Cat #6007270) and Interferon-gamma (IFNγ) levels measured using the Human IFNγ AlphaLISA Assay Kit (Perkin Elmer, Cat #AL217C). […] AlphaLisa signal was then measured on an Enspire plate reader (Perkin Elmer) using 680 and 615 nm as excitation and emission wavelengths respectively. Half maximal effective concentration (EC50) was calculated based on a variable slope, four parameter analysis using GraphPad PRISM software.

NK92 cells [2] = test: Cellular IL-18 Binding Protein resistance assay in NK92 cells (Example 13); details: IL-18BP-mediated inhibition of IFNγ secretion, IL-18 analyte 1 nM
Procedure: The NK cell line NK-92 derived from a patient with lymphoma (ATCC, Cat #CR^L-2407) was cultured in αMEM medium supplemented with 20% FCS-Glutamax, 25 μM B-mercaptoethanol, and 100 IU/ml of recombinant Human Interleukin-2 (IL-2). On the day of experiment, cells were harvested and washed with αMEM medium without IL-2. After counting, cells were seeded at 100 000 cells/well in a 384 well titer plate and incubated at 37° C./5% CO2. Sixteen 2-fold serial dilutions of Fc fused human IL-18 binding protein isoform a (IL-18BPa; R&D systems, Cat #119-BP) were prepared in αMEM medium—1 ng/ml IL-12 containing 2 nM of each IL-18 variants and were added to the NK-92 cells. Final IL-18 analytes concentration was 1 nM and final IL-18BPa concentrations ranged from to 566 nM down to 17 pM.
as §1, with “OPTIplate” for “OPTIPlate”, “inhibitory” for “effective”, “(IC50)” for “(EC50)”

[3] = system: parental PD-1negative NK-92 cells; test: IL-18BP mediated inhibition of IFN gamma secretion in parental PD-1 negative NK-92 cells (Example 18); details: IL-18BP-mediated inhibition of IFNγ secretion, IL-18 analyte 1 nM
Procedure: To characterize the resistance of anti-PD1-IL18 immunocytokines (IC) on PD-1 positive cells, the NK-92 cell line was used to generate a PD-1 expressing cell line and furthermore, to measure the inhibition of IFN[…] release upon incubation with IL-18 variants and ICs in the presence of increasing quantities of human IL-18BP.
On the day of experiment, parental PD-1^negative and PD-1^positive transduced cells were harvested and washed with PBS 1× and resuspended in medium (w/o IL-2) containing 1 ng/ml of recombinant human Interleukin-12 (SinoBiologicals, Cat #CT011-H08H). After counting, cells were seeded at 100 000 cells/well in a 384 well culture plate and incubated at 37° C./5% CO2. When indicated, cells were preincubated with anti-PD-1 antibody LZM-009 at 17 uM during 30 min at 37° C. […]
as §1, with “microwell OptiIPlate” for “microwells OPTIPlate”, “AlphaLISA” for “AlphaLisa”, “inhibitory” for “effective”, “(IC50)” for “(EC50)”

For “SEQ ID NO: 1: Native sequence of human IL-18 (bioactive form) [reference compound]”, which EC50 (NK92 cells [1]) is on record?
Its EC50 is 0.374 nM.

And the IC50 (NK92 cells [2])?
Its IC50 is 0.781 nM.

And the IC50 [3]?
Its IC50 is 2.97 nM.
